Source: US12448374B2, “Inhibitors of SARM1” (Disarm Therapeutics, Inc., priority 2018, dated 2025)

Target: T1, SARM1 SAM-TIR (Homo sapiens, UniProt Q6SZW1)
T1 construct: This assay makes use of a fragment of the SARM1 molecule encompassing the SAM and TIR domains; made in house; host or cells: NRK1-HEK293T cells (transient transfection; clarified sonicated lysate used without purification)
T1 sequence (Q6SZW1 409-724 limits assumed): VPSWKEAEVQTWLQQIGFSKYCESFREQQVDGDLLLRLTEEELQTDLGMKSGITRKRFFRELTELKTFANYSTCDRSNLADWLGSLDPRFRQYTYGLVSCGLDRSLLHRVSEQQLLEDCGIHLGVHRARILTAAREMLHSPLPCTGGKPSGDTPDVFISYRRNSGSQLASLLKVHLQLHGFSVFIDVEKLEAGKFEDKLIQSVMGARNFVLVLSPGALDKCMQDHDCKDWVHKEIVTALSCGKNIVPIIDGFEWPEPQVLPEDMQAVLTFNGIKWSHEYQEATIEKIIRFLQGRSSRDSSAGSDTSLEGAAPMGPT
Experiment: SAM-TIR SARM1 IC50 assay (NADase activity, NAD+ cleavage)
Format: biochemical
Conditions: SAM-TIR lysate 5 μg/mL, 2 h pre-incubation, 5 μM NAD+, RapidFire MS readout
Excerpt: This Example describes an assay of SAM-TIR NADase activity and use of this assay to measure the efficacy of compounds of Formula I to block SARM1 mediated NAD+ cleavage. This assay is optimized in such a way as to characterize the efficacy of the compounds in Formula I to inhibit SARM1 activity and to calculate an IC50 value for each compound. This assay makes use of a fragment of the SARM1 molecule encompassing the SAM and TIR domains.
NRK1-HEK293T cells refers to a cell line that has been stably e transfected with an FCIV expression vector that expresses human Nicotinamide Riboside Kinase 1 (NRK1), an enzyme that converts the NAD+ biosynthetic precursor nicotinamide riboside (NR) to NMN, the immediate precursor of NAD+. When provided with NR this cell line augments intracellular NAD+ levels and maintains cell viability, when expressing SARM1 SAM-TIR. FIG. 2 illustrates that a NRK1-HEK293T stable line with NR supplementation maintains higher NAD+ levels upon SARM1-TIR expression. Data was generated from three independent NAD+ measurements from three independent transfection experiments, and normalized to data from a non-transfected experiment run concurrently. Data are presented as mean±SEM; Error bars: SEM; ***P<0.001 two tailed student's t-test.
NRK1-HEK293T cells were seeded onto 150 cm^2 plates at 20×10^6 cells per plate. The next day, the cells were transfected with 15 μg FCIV-SST (SAM-TIR expression plasmid, SEQ ID NO: 1) using X-[…]™ 9 DNA Transfection Reagent (Roche product #06365787001).
The cultures were supplemented with 1 mM NR at time of transfection to minimize toxicity from SAM-TIR overexpression. Forty-eight hours after transfection, cells were harvested, pelleted by centrifugation at 1,000 rpm (Sorvall ST 16R centrifuge, Thermo Fisher), and washed once with cold PBS (0.01 M phosphate buffered saline NaCl 0.138 M; KCl 0.0027 M; pH 7.4). The cells were resuspended in PBS with protease inhibitors (cOmplete™ protease inhibitor cocktail, Roche product #11873580001) and cell lysates were prepared by sonication (Branson Sonifer 450, output=3, 20 episodes of stroke). The lysates were centrifuged (12,000×g for 10 min at 4° C.) to remove cell debris and the supernatants (containing SARM1 SAM-TIR protein) were stored at −80° C. for later use in the in vitro SARM1 SAM-TIR NADase assay (see below). Protein concentration was determined by the Bicinchoninic (BCA) method and used to normalize lysate concentrations.
The enzymatic assay was performed in a 384-well polypropylene plate in Dulbecco's PBS buffer in a final assay volume of 20 μL. SAM-TIR lysate with a final concentration of 5 μg/mL was pre-incubated with the respective compound at 1% DMSO final assay concentration over 2 h at room temperature. The reaction was initiated by addition of 5 μM final assay concentration of NAD+ as substrate. After a 2 hr room temperature incubation, the reaction was terminated with 40 μL of stop solution of 7.5% trichloroactetic acid in acetonitrile. The NAD+ and ADPR concentrations were analyzed by a RapidFire High Throughput Mass Spectrometry System (Agilent Technologies, Santa Clara, CA) using an API4000 triple quadrupole mass spectrometer (AB Sciex Framingham, MA).

First: Oc1nnc2cnccn12 [Example 27]
Second: Cn1cnc2cnccc21 [Example 28]
The IC50 of the first is higher: over 50 µM for the first, under 10 µM for the second. The second is the more potent here.

`Brc1csc2cnncc12` [Example 43] and `Ic1csc2cnncc12` [Example 41] cannot be ordered by IC50: under 10 µM for the first, under 10 µM for the second.

Compared with `CC(C)n1cc(Br)c2ccncc21` [Example 13], `Cn1cc(Br)c2ccncc21` [Example 16] is lower in IC50: 30 to 50 µM for the first, under 10 µM for the second. The second is the more potent here.

`Ic1c[nH]c2nnccc12` [Example 42] and `Brc1c[nH]c2nnccc12` [Example 44] cannot be ordered by IC50: over 50 µM for the first, over 50 µM for the second.

Compared with `NC(=O)Cn1cc(Br)c2ccncc21` [Example 11], `COCCn1cc(Br)c2ccncc21` [Example 12] is lower in IC50: over 50 µM for the first, 30 to 50 µM for the second.

First: CCOC(=O)c1[nH]c2cnccc2c1Br [Example 38]
Second: Brc1n[nH]c2cnccc12 [Example 31]
The IC50 of the first is higher: over 50 µM for the first, 10 to 30 µM for the second.

First: Brc1cncc2[nH]ncc12 [Example 32]
Second: Brc1cccc2[nH]ncc12 [Example 5]
The IC50 of the first is lower: under 10 µM for the first, 10 to 30 µM for the second. The first is the more potent here.

`Brc1csc2cnccc12` [Example 30] and `Brc1c[nH]c2cnccc12` [Example 7] cannot be ordered by IC50: under 10 µM for the first, under 10 µM for the second.

Going from `c1cc2ccsc2cn1` [Example 33] to `N#Cc1cc2ccncc2[nH]1` [Example 37], the IC50 rises from under 10 µM to over 50 µM.

Compared with `Cc1ccc2nc[nH]c2c1Br` [Example 29], `Clc1nccc2c(Br)c[nH]c12` [Example 6] is lower in IC50: 30 to 50 µM for the first, under 10 µM for the second.

Compared with `COCCCn1cc(Br)c2ccncc21` [Example 10], `CCn1cc(I)c2ccncc21` [Example 14] is lower in IC50: over 50 µM for the first, under 10 µM for the second. The second is the more potent here.

`Cn1cc(I)c2ccncc21` [Example 15] and `Ic1c[nH]c2cnccc12` [Example 4] cannot be ordered by IC50: under 10 µM for the first, under 10 µM for the second.

First: Clc1c[nH]c2cnccc12 [Example 9]
Second: O=S1(=O)C=C(Br)c2ccncc21 [Example 40]
The IC50 of the first is lower: under 10 µM for the first, 30 to 50 µM for the second. The first is the more potent here.

`Brc1cccc2nncn12` [Example 3] was tested, and the IC50 was over 50 µM.

Tested on: mouse dorsal root ganglion (DRG) neurons
Experiment: Axon degeneration assay in mouse DRG drop culture
Format: cell-based
Conditions: DRG neuron, protection of axon fragmentation, axonal transection or chemotoxic stimuli
Method: This Example illustrates an in vitro axon degeneration assay used to characterize compounds of Formula I. This assay is used to test the efficacy of the compounds of Formula I to prevent axonal degeneration in a mouse dorsal root ganglion (DRG) drop culture.
Mouse DRG Drop culture: Mouse dorsal root ganglion neurons (DRGs) were dissected out of E12.5 CD1 mice (50 ganglion per embryo) and incubated with 0.5% Trypsin solution containing 0.02% EDTA (Gibco) at 37° C. for 15 min. The cells were then triturated by gentle pipetting and washed 3 times with DRG growth medium (Neurobasal medium (Gibco) containing 2% B27 (Invitrogen), 100 ng/ml 2.5S NGF (Harland Bioproducts), 1 mM 5-fluoro-2′ deoxyuridine (Sigma), penicillin, and streptomycin). Cells were suspended in the DRG growth medium. DRG drop cultures were created by spotting 5000 cells/well into the center of each well of a 96-well tissue culture plate coated with poly-D-Lysine (0.1 mg/ml; Sigma) and laminin ([…]; Invitrogen). Cells were allowed to adhere to the plates in a humidified tissue culture incubator (5% CO2) for 15 min and then DRG growth medium was gently added ([…]).
Axon degeneration assay: Axonal degeneration was stimulated either by manual axonal transection using a scalpel blade, or chemotoxic stimuli. After an appropriate experimental time period, the DRG cultures were fixed in 1% PFA plus sucrose and kept in the fridge prior to imaging. Bright-field images of DRG axons and cell bodies were collected using the 20× water immersion lens of a Phenix automated confocal microscope (PerkinElmer) and quantitation of axonal performed using in-house developed scripts (Acapella, PerkinElmer).

Compared with `Brc1csc2cnccc12` [Example 30], `Brc1c[nH]c2cnccc12` [Example 7] is lower in IC50: 10 to 30 µM for the first, under 10 µM for the second. The second is the more potent here.

For `Ic1c[nH]c2cnccc12` [Example 4], the IC50 was under 10 µM.
